Values quoted from earlier work, collected in US20250186525A1, “DECAFFEINATED YERBA MATE EXTRACT, ANTI-OBESITY COMPOSITION, DECAFFEINATION METHOD AND METHOD FOR THE PRODUCTION OF A YERBA MATE EXTRACT” (priority 2022, published 2025).

Experiments:
mice = conditions: isolated from a hot water extract of yerba mate
fat accumulation = conditions: cell and animal tests

Row | Structure (SMILES) | food intake (mice) | inhibitory effect on fat accumulation (fat accumulation) | gene expression of fatty acid synthase (fatty acid synthase)
1 | O=C(/C=C/c1ccc(O)c(O)c1)O[C@@H]1CC(O)(C(=O)O)C[C@@H](OC(=O)/C=C/c2ccc(O)c(O)c2)C1O (stereo partly shown) [3,5-dicaffeoylquinic acid] | significantly reduces |  | 
2 | Cn1c(=O)c2c(ncn2C)n(C)c1=O [caffeine] |  | showed an inhibitory effect | reduced
3 | O=C(/C=C/c1ccc(O)c(O)c1)O[C@@H]1C[C@](O)(C(=O)O)C[C@@H](O)[C@H]1O [chlorogenic acid] | significantly reduces |  | 
